Test results as given in patent publication US20250206721A1, “Prostaglandin Receptor EP2 Antagonists, Derivatives, and Uses Related Thereto” (Emory University, priority 2019, published 2025).

Experiments:
[1] = target: T1, human EP2 receptor (Homo sapiens, UniProt P43116); assay: Cell-based cAMP TR-FRET assay, Schild KB on EP2; details: for EP2 KB / Kb: Schild KB, agonist PGE2, antagonist concentration 1 μM, C6G cells expressing human EP2
T1 construct: expressed in transfected cells

[2] = Kinetic aqueous solubility in PBS by nephelometry; details: for Aqueous Solubility: PBS buffer (pH 7.4) with 1% DMSO, nephelometry

T1 sequence (P43116 whole entry): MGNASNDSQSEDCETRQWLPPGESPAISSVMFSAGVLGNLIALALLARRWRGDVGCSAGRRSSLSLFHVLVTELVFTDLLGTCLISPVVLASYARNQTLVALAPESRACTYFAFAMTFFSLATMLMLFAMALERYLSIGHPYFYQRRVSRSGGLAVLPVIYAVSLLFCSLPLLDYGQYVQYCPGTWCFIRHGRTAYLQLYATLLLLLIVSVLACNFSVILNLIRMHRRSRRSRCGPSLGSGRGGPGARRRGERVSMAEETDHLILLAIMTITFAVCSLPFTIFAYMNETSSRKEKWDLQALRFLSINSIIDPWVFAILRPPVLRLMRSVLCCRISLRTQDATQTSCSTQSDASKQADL

Row | Aqueous Solubility [2] | SMILES | other results
1 | 38 µM | Cc1[nH]c2ccccc2c1CCNC(=O)c1cnc(Nc2ccncc2)nc1 [Compound 20p, N-(2-(2-Methyl-1H-indol-3-yl)ethyl)-2-(pyridin-4-ylamino)pyrimidine-5-carboxamide] | EP2 KB [1]: complete loss of potency
2 | 5 µM | COc1ccccc1-c1ccc(C(=O)NCCc2c(C)[nH]c3ccccc23)cc1 [Compound 14c, 2′-Methoxy-N-(2-(2-methyl-1H-indol-3-yl)ethyl)-[1,1′-biphenyl]-4-carboxamide] | 
3 |  | CC(=O)c1ccc(Nc2ncc(C(=O)NCCc3c(C)[nH]c4ccccc34)cn2)nc1 [Compound 20l, 2-((5-Acetylpyridin-2-yl)amino)-N-(2-(2-methyl-1H-indol-3-yl)ethyl)pyrimidine-5-carboxamide] | Kb [1]: 166 nM; fold reduced EP2 potency in comparison to 20b ([1]; comparator 20b): 20 fold
4 |  | Cc1cc(C)nc(Nc2ncc(C(=O)NCC(=O)c3c(C)[nH]c4ccccc34)cn2)c1 [Compound 24h, 2-((4,6-Dimethylpyridin-2-yl)amino)-N-(2-(2-methyl-1H-indol-3-yl)-2-oxoethyl)pyrimidine-5-carboxamide] | EP2 KB [1]: eliminated the potency
5 | 206 µM | Cc1[nH]c2ccccc2c1CCNC(=O)c1ccc(N2CCOCC2)nc1 [Compound 2b, N-(2-(2-Methyl-1H-indol-3-yl)ethyl)-6-morpholinonicotinamide] | Kb [1]: 118 nM; fold less EP2 potency in comparison to 2a ([1]; comparator 2a): 4 fold; fold increased aqueous solubility ([2]; comparator 2a): 3 fold
6 | 20 µM | COc1ccc2[nH]c(C)c(CCNC(=O)c3cnc(Nc4cc(C)cc(C)n4)nc3)c2c1 [Compound 24e, 2-((4,6-Dimethylpyridin-2-yl)amino)-N-(2-(5-methoxy-2-methyl-1H-indol-3-yl)ethyl)pyrimidine-5-carboxamide] | 
7 | 70 µM | Cc1cc(C)nc(Nc2ncc(C(=O)NCCc3c(C)nn4ccccc34)cn2)c1 [Compound 24g, 2-((4,6-Dimethylpyridin-2-yl)amino)-N-(2-(2-methylpyrazolo[1,5-a]pyridin-3-yl)ethyl)pyrimidi-ne-5-carboxamide] | 
8 | 6 µM | CCC(C)(O)c1cccc(Nc2ncc(C(=O)NCCc3c(C)[nH]c4ccccc34)cn2)n1 (stereo not drawn) [Compound 20m, 2-((6-(2-Hydroxybutan-2-yl)pyridin-2-yl)amino)-N-(2-(2-methyl-1H-indol-3-yl)ethyl) pyrimidine-5-carboxamide] | 
9 | 13 µM | Cc1[nH]c2ccccc2c1CCNC(=O)c1cnc(Nc2cccc(C#N)n2)nc1 [Compound 20g, 2-((6-Cyanopyridin-2-yl)amino)-N-(2-(2-methyl-1H-indol-3-yl)ethyl)pyrimidine-5-carboxamide] | 
10 | 25 µM | Cc1[nH]c2ccccc2c1CCNC(=O)c1cnc(Nc2cccc(C(C)(C)C)n2)nc1 [Compound 20n, 2-((6-(tert-Butyl)pyridin-2-yl)amino)-N-(2-(2-methyl-1H-indol-3-yl)ethyl)pyrimidine-5-carboxamide] | 
11 | 10 µM | Cc1[nH]c2ccccc2c1CCNC(=O)c1cnc(Nc2cccc(O)n2)nc1 [Compound 20i, 2-((6-Hydroxypyridin-2-yl)amino)-N-(2-(2-methyl-1H-indol-3-yl)ethyl)pyrimidine-5-carboxamide] | 
12 | 5 µM | CC(=O)c1cccc(Nc2ncc(C(=O)NCCc3c(C)[nH]c4ccccc34)cn2)n1 [Compound 20j, 2-((6-Acetylpyridin-2-yl)amino)-N-(2-(2-methyl-1H-indol-3-yl)ethyl)pyrimidine-5-carboxamide] | 
13 | 5 µM | Cc1[nH]c2ccccc2c1CCNC(=O)c1cnc(Nc2cc(C(C)(C)C)ccn2)nc1 [Compound 20d, 2-((4-(tert-Butyl)pyridin-2-yl)amino)-N-(2-(2-methyl-1H-indol-3-yl)ethyl)pyrimidine-5-carboxamide] | 
